Test results published in US9464064B2, “HCV helicase inhibitors and methods of use thereof” (University of Kansas, priority 2011, dated 2016).

Biological target: T1, HCV NS3 helicase NS3h_1b(con1) (Hepatitis C virus genotype 1b, UniProt Q9WMX2)
T1 construct: truncated C-terminally His-tagged NS3 proteins lacking the N-terminal protease, called NS3h; His-tag (C); made in house
Assay: MBHA screen of NCI mechanistic set library at 20 μM (percent inhibition, compound interference)
Type: biochemical
Settings: compounds at 20 μM; for Inh. (%) (Inhibition): calculated from Equation 1
Summary of the method: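 Molecular beacon-based DNA unwinding assay; compounds screened at 20 μM in triplicate, with DMSO-only negative and 500 nM dT20 positive controls. Fluorescence (ex 643/em 670 nm) was read before and 30 min after adding ATP to 1 mM. Percent inhibition came from the change relative to DMSO controls; interference from pre-ATP fluorescence versus DMSO controls.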

[1] = MBHA with DNA substrate, assay interference calculated with Equation 2
[2] = assay interference calculated with Equation 2 (fluorescence vs DMSO-only controls before ATP)

T1 sequence (Q9WMX2 1192-1657): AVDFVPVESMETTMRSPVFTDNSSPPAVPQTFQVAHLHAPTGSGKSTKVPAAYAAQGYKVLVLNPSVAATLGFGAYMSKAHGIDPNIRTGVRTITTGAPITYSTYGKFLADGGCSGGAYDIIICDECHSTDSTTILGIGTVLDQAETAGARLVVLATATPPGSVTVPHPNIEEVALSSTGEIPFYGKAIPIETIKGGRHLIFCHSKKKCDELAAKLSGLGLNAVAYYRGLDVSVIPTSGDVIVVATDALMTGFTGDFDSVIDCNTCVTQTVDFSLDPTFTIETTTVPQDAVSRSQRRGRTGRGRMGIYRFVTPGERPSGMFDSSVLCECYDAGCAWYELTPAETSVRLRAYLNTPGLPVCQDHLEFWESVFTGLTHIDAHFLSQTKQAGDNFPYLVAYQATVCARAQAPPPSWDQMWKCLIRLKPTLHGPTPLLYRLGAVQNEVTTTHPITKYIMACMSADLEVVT

Structure (SMILES)	Int.* (Ratio) (Interference) [1]	Inh. (%) (Inhibition) (MBHA with DNA substrate)	Inh. (%) (Inhibition) (MBHA with a DNA substrate)	Int.* (Ratio) (Interference) [2]
Cc1[nH]c(=O)[nH]c(=O)c1/C=C/C(=O)NC(CO)CC(C)C (stereo not shown) [Compound 224117]	1.01	−2.8	–	–
NC(=O)OCc1c(O)c2c(c(O)c1COC(N)=O)C(=O)C=CC2=O [Compound 224124]	0.93	37.7	–	–
O=C(O)CC(NC(=O)CP(=O)(O)O)C(=O)O (stereo not shown) [Compound 224131]	0.86	12.3	–	–
CO[C@H]1C[C@@H]2CC[C@@H](C)[C@@](O)(O2)C(=O)C(=O)N2CCCC[C@H]2C(=O)O[C@H]([C@H](C)C[C@@H]2CC[C@@H](O)[C@H](OC)C2)CC(=O)[C@H](C)/C=C(\C)[C@@H](O)[C@@H](OC)C(=O)[C@H](C)C[C@H](C)/C=C/C=C/C=C/1C [Compound 226080]	0.90	−1.0	–	–
CSCC(CO)NC(=O)/C=C/c1c(C)[nH]c(=O)[nH]c1=O (stereo not shown) [Compound 233872]	1.00	17.4	–	–
O=C([O-])c1ccc(Nc2c3ccccc3nc3ccccc23)cc1.[Na+] [Compound 235082]	–	–	−6.4	1.02
COC1C(O)=C2C(=O)OC(C)(O)/C=C/C=C\C=C/C=C/C(c3ccccc3)NC(=O)/C=C/C=C/C=C/C=C/C2(C)C1O (stereo not shown) [Compound 236657]	–	–	−19.9	0.91
COC1/C=C/OC2(C)Oc3c(C)c(O)c4c(c3C2=O)C(=O)C=C(NC(=O)/C(C)=C\C=C\C(C)C(OC=O)C(C)C(O)C(C)C(OC(C)=O)C1C)C4=O (stereo not shown) [Compound 239375]	0.90	−18.3	–	–
Cc1cc(N(CC(C)Br)CC(C)Br)ccc1N=Nc1ccccc1C(=O)O (stereo not shown) [Compound 240419]	0.94	−2.7	–	–
CCCC[S+]([O-])CC(CO)NC(=O)/C=C\c1c(C)[nH]c(=O)[nH]c1=O (stereo not shown) [Compound 241509]	1.01	−2.4	–	–
COc1cc(O)c(Cc2ccccc2O)c(O)c1C(=O)CCc1ccccc1 [Compound 241906]	–	–	−6.2	0.88
CC[C@@]1(O)C[C@H](O[C@H]2C[C@H](N(C)C)[C@H](O[C@H]3C[C@@H]4O[C@H]5CC(=O)[C@H](C)O[C@H]5O[C@@H]4[C@H](C)O3)[C@H](C)O2)c2c(cc3c(c2O)C(=O)c2c(O)ccc(O)c2C3=O)[C@H]1C(=O)OC [Compound 243023]	0.46	24.2	–	–
CCS(=O)(=O)Nc1ccc(Nc2c3ccccc3nc3ccccc23)c(OC)c1.CS(=O)(=O)O [Compound 243928]	0.87	3.4	–	–
CC(=O)OC[C@H]1O[C@@H](NC(=O)N(CCCl)N=O)[C@H](OC(C)=O)[C@@H](OC(C)=O)[C@@H]1OC(C)=O [Compound 245432]	1.06	37.4	–	–
COc1cc(NS(C)(=O)=O)ccc1Nc1c2ccccc2nc2ccccc12 [Compound 249992]	1.08	3.0	–	–
CNC(=O)ON(C(C)=O)C(=O)NC [Compound 253272]	0.97	5.5	–	–
O=C([CH-]C(=O)C(F)(F)F)c1ccccc1.O=C([CH-]C(=O)C(F)(F)F)c1ccccc1.O=C([CH-]C(=O)C(F)(F)F)c1ccccc1.O=C([CH-]C(=O)C(F)(F)F)c1ccccc1.[Eu+3].c1ccncc1 [Compound 253995]	0.78	2.4	–	–
CO[C@H]1/C=C\C=C(/C)C(=O)NC2=CC(=O)C(N)=C(C[C@@H](C)C[C@H](OC)[C@H](O)[C@@H](C)/C=C(\C)[C@@H]1OC(N)=O)C2=O [Compound 255109]	0.77	31.7	–	–
CC(C)N.CC(C)N.[Cl-].[Cl-].[OH-].[OH-].[Pt] [Compound 256927]	1.02	−0.4	–	–
Clc1ccccc1C(c1ccccc1)(c1ccccc1)n1ccnc1 [Compound 257473]	1.08	−8.4	–	–
